In ChEMBL document CHEMBL5375952, “Discovery of Novel 8-Hydroxyquinoline Derivatives with Potent In Vitro and In Vivo Antifungal Activity” (J Med Chem, 2023):
Calls of active or inactive are those of the source. The calls are words filed in the database; no cut-off is given here.

What was measured:
[1] = tested on: Candida albicans; assay: Synergistic antifungal activity against FLC-resistant Candida albicans 710452 assessed as MIC of FLC incubated for 48 hrs by broth microdilution method; assay type: functional
[2] = tested on: Candida albicans; assay: Synergistic antifungal activity against FLC-resistant Candida albicans 64548 assessed as MIC of FLC incubated for 48 hrs by broth microdilution method; assay type: functional
[3] = tested on: Candida albicans; assay: Antifungal activity against Candida albicans SC5314 infected in C57BL/6 mouse assessed as mean fungal burden at 2 mg/kg, ip measured after 46 hrs by plate count method (reference value: 6.902 log10CFU/ml); assay type: functional
[4] = tested on: Candida albicans; assay: Synergistic antifungal activity against FLC-resistant Candida albicans 305 assessed as fractional inhibitory concentration index incubated for 48 hrs in presence of FLC by broth microdilution method; assay type: functional
[5] = tested on: Candida albicans; assay: Synergistic antifungal activity against FLC-resistant Candida albicans 11 assessed as fungal growth inhibition incubated for 48 hrs in presence of FLC by broth microdilution method; assay type: functional
[6] = tested on: Candida albicans; assay: Synergistic antifungal activity against FLC-resistant Candida albicans 710513 assessed as fractional inhibitory concentration index incubated for 48 hrs in presence of FLC by broth microdilution method; assay type: functional
[7] = tested on: Candida albicans; assay: Synergistic antifungal activity against FLC-resistant Candida albicans 249 assessed as fractional inhibitory concentration index incubated for 48 hrs in presence of FLC by broth microdilution method; assay type: functional
[8] = tested on: Candida albicans; assay: Synergistic antifungal activity against FLC-resistant Candida albicans 10 assessed as fractional inhibitory concentration index incubated for 48 hrs in presence of FLC by broth microdilution method; assay type: functional
[9] = tested on: Candida albicans; assay: Synergistic antifungal activity against FLC-resistant Candida albicans 379 assessed as MIC of FLC incubated for 48 hrs by broth microdilution method; assay type: functional
[10] = tested on: Candida albicans; assay: Synergistic antifungal activity against FLC-resistant Candida albicans 10 assessed as MIC of FLC incubated for 48 hrs by broth microdilution method; assay type: functional
[11] = tested on: Candida albicans; assay: Synergistic antifungal activity against FLC-resistant Candida albicans 12 assessed as MIC of FLC incubated for 48 hrs by broth microdilution method; assay type: functional
[12] = tested on: Candida albicans; assay: Synergistic antifungal activity against FLC-resistant Candida albicans 379 assessed as fractional inhibitory concentration index incubated for 48 hrs in presence of FLC by broth microdilution method; assay type: functional
[13] = tested on: Candida albicans; assay: Synergistic antifungal activity against FLC-resistant Candida albicans 646 assessed as MIC of FLC incubated for 48 hrs by broth microdilution method; assay type: functional
[14] = Half life in Sprague-Dawley rat at 5 mg/kg, po by LC-MS/MS analysis; assay type: ADME, organism-based; conditions: in vivo
[15] = tested on: Candida albicans; assay: Synergistic antifungal activity against FLC-resistant Candida albicans 710506 assessed as fractional inhibitory concentration index incubated for 48 hrs in presence of FLC by broth microdilution method; assay type: functional
[16] = tested on: Candida albicans; assay: Synergistic antifungal activity against FLC-resistant Candida albicans 540 assessed as fungal growth inhibition incubated for 48 hrs in presence of FLC by broth microdilution method; assay type: functional
[17] = tested on: Candida albicans; assay: Synergistic antifungal activity against FLC-resistant Candida albicans 385 assessed as fractional inhibitory concentration index incubated for 48 hrs in presence of FLC by broth microdilution method; assay type: functional
[18] = tested on: Candida albicans; assay: Synergistic antifungal activity against FLC-resistant Candida albicans 512644 assessed as fungal growth inhibition incubated for 48 hrs in presence of FLC by broth microdilution method; assay type: functional
[19] = tested on: Candida albicans; assay: Synergistic antifungal activity against FLC-resistant Candida albicans 710419 assessed as fungal growth inhibition incubated for 48 hrs in presence of FLC by broth microdilution method; assay type: functional
[20] = tested on: Candida albicans; assay: Synergistic antifungal activity against FLC-resistant Candida albicans 953 assessed as fractional inhibitory concentration index incubated for 48 hrs in presence of FLC by broth microdilution method; assay type: functional
[21] = tested on: Candida albicans; assay: Synergistic antifungal activity against FLC-resistant Candida albicans 710554 assessed as fungal growth inhibition incubated for 48 hrs in presence of FLC by broth microdilution method; assay type: functional
[22] = tested on: Candida albicans; assay: Inhibition of hypha formation in Candida albicans SC5314 at 4 ug/ml incubated for 3 hrs by inverted phase contrast microscopy; assay type: functional, organism-based; conditions: dose 4.0 µg/ml
[23] = tested on: Candida albicans; assay: Inhibition of hypha formation in Candida albicans SC5314 at 8 to 16 ug/ml incubated for 3 hrs by inverted phase contrast microscopy; assay type: functional, organism-based; conditions: dose 8-16 µg/ml
[24] = tested on: Candida albicans; assay: Synergistic antifungal activity against FLC-resistant Candida albicans 710419 assessed as fractional inhibitory concentration index incubated for 48 hrs in presence of FLC by broth microdilution method; assay type: functional
[25] = Volume of distribution at steady state in Sprague-Dawley rat at 2 mg/kg, iv by LC-MS/MS analysis; assay type: ADME, organism-based; conditions: in vivo, read-out: Vdss
[26] = tested on: Candida albicans; assay: Synergistic antifungal activity against FLC-resistant Candida albicans 385 assessed as fungal growth inhibition incubated for 48 hrs in presence of FLC by broth microdilution method; assay type: functional
[27] = tested on: Candida albicans; assay: Synergistic inhibition of biofilm formation of Candida albicans SC5314 incubated for 24 hrs in presence of FLC by XTT assay; assay type: functional, organism-based; conditions: dose <= 16.0 µg/ml
[28] = tested on: Candida albicans; assay: Synergistic antifungal activity against FLC-resistant Candida albicans 953 assessed as fungal growth inhibition incubated for 48 hrs in presence of FLC by broth microdilution method; assay type: functional
[29] = tested on: Candida albicans; assay: Synergistic antifungal activity against FLC-resistant Candida albicans 385 assessed as MIC of FLC incubated for 48 hrs by broth microdilution method; assay type: functional
[30] = tested on: Candida albicans; assay: Synergistic antifungal activity against FLC-resistant Candida albicans 100 assessed as MIC of FLC incubated for 48 hrs by broth microdilution method; assay type: functional
[31] = tested on: Candida albicans; assay: Synergistic antifungal activity against FLC-resistant Candida albicans 379 assessed as fungal growth inhibition incubated for 48 hrs in presence of FLC by broth microdilution method; assay type: functional
[32] = tested on: Candida albicans; assay: Synergistic antifungal activity against FLC-resistant Candida albicans 395 assessed as fractional inhibitory concentration index incubated for 48 hrs in presence of FLC by broth microdilution method; assay type: functional
[33] = Cmax in Sprague-Dawley rat at 5 mg/kg, po by LC-MS/MS analysis; assay type: ADME, organism-based; design: dose 5 mg/kg, route po; conditions: in vivo
[34] = Clearance in Sprague-Dawley rat at 2 mg/kg, iv by LC-MS/MS analysis; assay type: ADME, organism-based; conditions: in vivo
[35] = tested on: Candida albicans; assay: Synergistic antifungal activity against FLC-resistant Candida albicans 646 assessed as fungal growth inhibition incubated for 48 hrs in presence of FLC by broth microdilution method; assay type: functional
[36] = tested on: Candida albicans; assay: Synergistic antifungal activity against FLC-resistant Candida albicans 17 assessed as fractional inhibitory concentration index incubated for 48 hrs in presence of FLC by broth microdilution method; assay type: functional
[37] = tested on: Candida albicans; assay: Synergistic antifungal activity against FLC-resistant Candida albicans 249 assessed as fungal growth inhibition incubated for 48 hrs in presence of FLC by broth microdilution method; assay type: functional
[38] = tested on: Candida albicans; assay: Synergistic antifungal activity against FLC-resistant Candida albicans 12 assessed as fractional inhibitory concentration index incubated for 48 hrs in presence of FLC by broth microdilution method; assay type: functional
[39] = tested on: Candida albicans; assay: Antifungal activity against Candida albicans SC5314 infected in C57BL/6 mouse assessed as mean fungal burden at 0.25 mg/kg, ip measured after 46 hrs by plate count method (reference value: 6.902 log10CFU/ml); assay type: functional
[40] = Toxicity in C57BL/6 mouse infected with Candida albicans SC5314 assessed as animal death at 0.25 mg/kg, ip measured after 7 days; assay type: organism-based; conditions: in vivo, 168 h, time 7 day

CCN(CC)c1ccc(C(NC(=O)C(C)C)c2ccc3cccnc3c2O)cc1 (stereo not given)
MIC [1]: 0.25 µg/mL | MIC [2]: 0.063 µg/mL | Activity [3]: 6.318 log10CFU/ml | fractional inhibitory concentration index (FICI) [4]: 0.039 | MIC [5]: 0.008 µg/mL | fractional inhibitory concentration index (FICI) [6]: 0.039 | fractional inhibitory concentration index (FICI) [7]: 0.035 | fractional inhibitory concentration index (FICI) [8]: 0.07 | MIC [9]: 1 µg/mL | MIC [10]: 0.25 µg/mL | MIC [11]: 1 µg/mL | fractional inhibitory concentration index (FICI) [12]: 0.039 | MIC [13]: 1 µg/mL | half-life [14]: 1 h | fractional inhibitory concentration index (FICI) [15]: 0.035 | MIC [16]: 0.016 µg/mL | fractional inhibitory concentration index (FICI) [17]: 0.078 | MIC [18]: 0.008 µg/mL | MIC [19]: 0.031 µg/mL | fractional inhibitory concentration index (FICI) [20]: 0.032 | MIC [21]: 0.031 µg/mL | inhibition [22]: inactive | inhibition [23]: Active | fractional inhibitory concentration index (FICI) [24]: 0.064 | Vd [25]: 4.75 L/kg | MIC [26]: 0.008 µg/mL | inhibition [27]: Dose-Dependent Effect | MIC [28]: 0.016 µg/mL | MIC [29]: 2 µg/mL | MIC [30]: 0.25 µg/mL | MIC [31]: 0.008 µg/mL | fractional inhibitory concentration index (FICI) [32]: 0.133 | Cmax [33]: 239 ng/mL | clearance [34]: 30.4 mL/min/kg | MIC [35]: 0.016 µg/mL | fractional inhibitory concentration index (FICI) [36]: 0.035 | MIC [37]: 0.008 µg/mL | fractional inhibitory concentration index (FICI) [38]: 0.062

OC(Cn1cncn1)(Cn1cncn1)c1ccc(F)cc1F [FLUCONAZOLE]
Activity [39]: 5.66 log10CFU/ml | Activity [40]: Toxic
